# Test results as given in patent publication US11033539B2, “Compounds of formulas (VII), (VIII), (IX), (XI), (XII), (XIII), and (XIV) as muscarinic receptor 4(M4) antagonists for treating neurological diseases” (Neurocrine Biosciences, Inc., priority 2015, dated 2021).
# Target: human M4 receptor (Homo sapiens (Human), UniProt P08173)
# Assay: Radioligand (tritiated N-methylscopolamine) binding assay, M4
# Conditions: Ki against the M4 receptor; membranes from CHO cells expressing human M4; tritiated N-methylscopolamine 1.5 nM; read-out: Ki
# Method in brief: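 Test compound (12 concentrations, 10 μM to […]), 1.5 nM radioligand and CHO receptor membranes were co-incubated at 37 °C for 90 minutes in 50 mM HEPES buffer with 100 mM NaCl, 5 mM MgCl2 and 1 mM EDTA, pH 7.4. Membranes were then harvested onto polyethylenimine-pretreated filters and radioactivity was counted to determine Ki.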
# Chain of human M4 receptor (P08173 whole entry): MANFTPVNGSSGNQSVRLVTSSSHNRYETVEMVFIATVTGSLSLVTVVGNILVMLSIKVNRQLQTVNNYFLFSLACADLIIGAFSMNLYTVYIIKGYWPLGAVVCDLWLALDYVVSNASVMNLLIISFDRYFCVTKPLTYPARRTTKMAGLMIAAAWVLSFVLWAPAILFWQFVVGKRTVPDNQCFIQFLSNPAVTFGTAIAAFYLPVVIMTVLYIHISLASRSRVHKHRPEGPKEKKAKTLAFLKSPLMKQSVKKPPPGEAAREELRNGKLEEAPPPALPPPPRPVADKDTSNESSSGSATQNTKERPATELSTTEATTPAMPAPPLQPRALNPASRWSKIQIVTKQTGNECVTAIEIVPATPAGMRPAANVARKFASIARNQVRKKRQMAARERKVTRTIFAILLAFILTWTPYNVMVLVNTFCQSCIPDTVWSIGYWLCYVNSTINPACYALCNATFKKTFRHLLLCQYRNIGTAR
row,Structure (SMILES),Ki [nM]
1,"N#Cc1cc2ccccc2nc1-c1cc(C(=O)NCCC2CCN(Cc3ccccc3)CC2)ccc1Cl [9-60, N-[2-(1-benzylpiperidin-4-yl)ethyl]-4-chloro-3-(3-cyanoquinolin-2-yl)benzamide]",100 to 1000
2,"COc1ccc(CN2CCC(CCNC(=O)N3[C@H](C)CN(c4ncc(C#N)cn4)C[C@@H]3C)CC2)cc1 [6-65, (2R,6S)-4-(5-cyanopyrimidin-2-yl)-N-(2-{1-[(4-methoxyphenyl)-methyl]piperidin-4-yl}ethyl)-2,6-dimethylpiperazine-1-carboxamide]",10 to 100
3,"CN(CCNC(=O)C1CCN(c2cccc(OC(F)(F)F)c2)CC1)[C@H]1CCN(Cc2ccccc2)C1 [9-31, N-(2-{[(3S)-1-benzylpyrrolidin-3-yl](methyl)amino}ethyl)-1-[3-(trifluoromethoxy)phenyl]piperidine-4-carboxamide]",10 to 100
4,"O=C(NCCC1CCN(Cc2ccccc2)CC1)Nc1ccc(Oc2ccccc2)cc1 [8-41, 3-[2-(1-benzylpiperidin-4-yl)ethyl]-1-(4-phenoxyphenyl)urea]",100 to 1000
5,"C[C@@H]1CN(c2ncc(C#N)cn2)C[C@H](C)N1C(=O)NCCC1CCN(Cc2ccc(C#N)cc2)CC1 [6-45, (2R,6S)-N-(2-{1-[(4-cyanophenyl)methyl]piperidin-4-yl}ethyl)-4-(5-cyanopyrimidin-2-yl)-2,6-dimethylpiperazine-1-carboxamide]",100 to 1000
6,"C[C@@H]1CN(c2cc(F)c(F)c(F)c2)CCN1C(=O)NCCC1CCN(Cc2ccccc2OC(F)F)CC1 [6-13, (2R)-N-[2-(1-{[2-(difluoromethoxy)phenyl]methyl}piperidin-4-yl)ethyl]-2-methyl-4-(3,4,5-trifluorophenyl)piperazine-1-carboxamide]",10 to 100
7,"COc1ccc(N2CCC(C(=O)NCCC3CCN(Cc4ccccc4)CC3)CC2)cc1C#N [10-2, N-[2-(1-benzylpiperidin-4-yl)ethyl]-1-(3-cyano-4-methoxyphenyl)piperidine-4-carboxamide]",100 to 1000
8,"N#Cc1ccc(N2CCC(C(=O)NCCC3CCN(Cc4ccc(O)cc4)CC3)CC2)nc1 [11-17, 1-(5-cyanopyridin-2-yl)-N-(2-{1-[(4-hydroxyphenyl)methyl]piperidin-4-yl}ethyl)piperidine-4-carboxamide]",100 to 1000
9,"C[C@@H]1CN(c2cccc(F)c2F)CCN1C(=O)NCCC1CCN(Cc2ccccc2)CC1 [4-37, (2R)-N-[2-(1-benzylpiperidin-4-yl)ethyl]-4-(2,3-difluorophenyl)-2-methylpiperazine-1-carboxamide]",10 to 100
10,"O=C(NCCC1CCN(Cc2ccc(F)cc2)CC1)c1ccc(OCc2ccccc2)cc1 [6-15, 4-(benzyloxy)-N-(2-{1-[(4-fluorophenyl)methyl]piperidin-4-yl}ethyl)benzamide]",10 to 100
11,"N#Cc1cc(N2CCC(C(=O)NC[C@H](O)C3CCN(Cc4ccccc4)CC3)CC2)ccc1F [9-15, N-[(2R)-2-(1-benzylpiperidin-4-yl)-2-hydroxyethyl]-1-(3-cyano-4-fluorophenyl)piperidine-4-carboxamide]",10 to 100
12,"O=C(NCCC1CCN(Cc2ccccc2)CC1)N1CCN(c2cc(F)c(F)c(F)c2)CC1 [4-74, N-[2-(1-benzylpiperidin-4-yl)ethyl]-4-(3,4,5-trifluorophenyl)piperazine-1-carboxamide]",10 to 100
13,"C[C@@H]1CN(c2ncc(C#N)cn2)C[C@H](C)N1C(=O)NCCC1CCN(CCc2ccccc2)CC1 [6-44, (2R,6S)-4-(5-cyanopyrimidin-2-yl)-2,6-dimethyl-N-{2-[1-(2-phenylethyl)piperidin-4-yl]ethyl}piperazine-1-carboxamide]",100 to 1000
14,"O=C(NCCC1CCN(Cc2cccc(F)c2)CC1)c1ccc(OCc2ccccc2)cc1 [11-24, 4-(benzyloxy)-N-(2-{1-[(3-fluorophenyl)methyl]piperidin-4-yl}ethyl)benzamide]",100 to 1000
15,"C[C@@H]1CN(c2cc(F)c(F)c(F)c2)CCN1C(=O)NCCC1CCN(Cc2cc(F)ccc2F)CC1 [6-25, (2R)-N-(2-{1-[(2,5-difluorophenyl)methyl]piperidin-4-yl}ethyl)-2-methyl-4-(3,4,5-trifluorophenyl)piperazine-1-carboxamide]",100 to 1000
16,Cc1c(C(=O)NCCC2CCN(Cc3ccccc3)CC2)cnc2cc(-c3ccc(C#N)c(F)c3)nn12 [18-12],10 to 100
17,"O=C(NCCC1CCN(Cc2ccccc2)CC1)N1CCN(c2ccc(Cl)cc2)CC1 [8-13, N-[2-(1-benzylpiperidin-4-yl)ethyl]-4-(4-chlorophenyl)piperazine-1-carboxamide]",10 to 100
18,"O=C(NCCC1CCN(Cc2ccccc2)CC1)c1ccc(SC(F)(F)F)cc1 [9-56, N-[2-(1-benzylpiperidin-4-yl)ethyl]-4-[(trifluoromethyl)sulfanyl]benzamide]",100 to 1000
19,"N#Cc1cc(N2CCC(C(=O)NCCC3(CO)CCN(Cc4ccccc4)CC3)CC2)ccc1F [9-24, N-{2-[1-benzyl-4-(hydroxymethyl)piperidin-4-yl]ethyl}-1-(3-cyano-4-fluorophenyl)piperidine-4-carboxamide]",10 to 100
20,"C[C@@H]1CN(c2cc(F)cc(C#N)c2)CCN1C(=O)NCC[C@H]1CCN(Cc2ccccc2)C1 [7-8, (2R)-N-{2-[(3S)-1-benzylpyrrolidin-3-yl]ethyl}-4-(3-cyano-5-fluorophenyl)-2-methylpiperazine-1-carboxamide]",100 to 1000

row,Structure (SMILES),Ki [nM]
1,"O=C(c1ccc(-c2cccs2)cc1)N(C1CC1)C1CCN(Cc2ccccc2)CC1 [9-53, N-(1-benzylpiperidin-4-yl)-N-cyclopropyl-4-(thiophen-2-yl)benzamide]",100 to 1000
2,"C[C@@H]1CN(c2ccc(C#N)cn2)CCN1C(=O)NCCC1CCN(Cc2ccccc2)CC1 [4-31, (2R)-N-[2-(1-benzylpiperidin-4-yl)ethyl]-4-(5-cyanopyridin-2-yl)-2-methylpiperazine-1-carboxamide]",10 to 100
3,C[C@@H]1CN(c2ncc(C#N)cn2)C[C@H](C)N1C(=O)NCCC1CCN(CC23C4C5C6C4C2C6C53)CC1 (stereo partly drawn) [21-13],10 to 100
4,C[C@@H]1CN(c2ncc(C#N)cn2)C[C@H](C)N1C(=O)NCCC1CCN(CC23CC(C2)C3)CC1 [21-12],100 to 1000
5,Cc1c(C(=O)NCCC2CCN(CC3CCCCC3)CC2)cnc2cc(-c3cccc(C(F)(F)F)c3)nn12 [19-3],100 to 1000
6,"O=C(NCCC1CCN(Cc2ccccc2)CC1)N1CCC(n2nnc3ccccc32)CC1 [8-46, 4-(1H-1,2,3-benzotriazol-1-yl)-N-[2-(1-benzylpiperidin-4-yl)ethyl]piperidine-1-carboxamide]",100 to 1000
7,"O=C(NCC1CCN(Cc2ccccc2)CC1)C1CCN(c2ncc(C(F)(F)F)cc2Cl)CC1 [9-65, N-[(1-benzylpiperidin-4-yl)methyl]-1-[3-chloro-5-(trifluoromethyl)pyridin-2-yl]piperidine-4-carboxamide]",100 to 1000
8,"COc1cccc(C2CCN(C(=O)NCCC3CCN(Cc4ccccc4)CC3)CC2)c1 [8-5, N-[2-(1-benzylpiperidin-4-yl)ethyl]-4-(3-methoxyphenyl)piperidine-1-carboxamide]",100 to 1000
9,"C[C@@H]1CN(c2cc(F)c(F)c(F)c2)CCN1C(=O)NCCC1CCN(Cc2c(F)cccc2F)CC1 [6-28, (2R)-N-(2-{1-[(2,6-difluorophenyl)methyl]piperidin-4-yl}ethyl)-2-methyl-4-(3,4,5-trifluorophenyl)piperazine-1-carboxamide]",100 to 1000
10,"O=C(NCCC1CCN(Cc2ccccc2O)CC1)c1ccc(Oc2ccccc2)cc1 [11-5, N-(2-{1-[(2-hydroxyphenyl)methyl]piperidin-4-yl}ethyl)-4-phenoxybenzamide]",100 to 1000
11,"N#Cc1ccnc(N2CCC(C(=O)NCCC3CCN(Cc4ccccc4)CC3)CC2)c1 [10-66, N-[2-(1-benzylpiperidin-4-yl)ethyl]-1-(4-cyanopyridin-2-yl)piperidine-4-carboxamide]",100 to 1000
12,"O=C(NCC[C@@H]1CCN(Cc2ccccc2)C1)C1CCN(c2ccc(OC(F)(F)F)cc2)CC1 [9-66, N-{2-[(3R)-1-benzylpyrrolidin-3-yl]ethyl}-1-[4-(trifluoromethoxy)phenyl]piperidine-4-carboxamide]",100 to 1000
13,"C[C@@H]1CN(c2cc(F)c(F)c(F)c2)CCN1C(=O)NCCC1CCN(Cc2cccc(OC(F)(F)F)c2)CC1 [6-20, (2R)-2-methyl-N-[2-(1-{[3-(trifluoromethoxy)phenyl]methyl}piperidin-4-yl)ethyl]-4-(3,4,5-trifluorophenyl)piperazine-1-carboxamide]",100 to 1000
14,"C[C@@H]1CN(c2ccc(F)nc2)CCN1C(=O)NCCC1CCN(Cc2ccccc2)CC1 [4-35, (2R)-N-[2-(1-benzylpiperidin-4-yl)ethyl]-4-(6-fluoropyridin-3-yl)-2-methylpiperazine-1-carboxamide]",10 to 100
15,"N#Cc1cc(N2CCN(C(=O)NCCC3CCN(Cc4ccccc4)CC3)CC2)ccc1F [8-22, N-[2-(1-benzylpiperidin-4-yl)ethyl]-4-(3-cyano-4-fluorophenyl)piperazine-1-carboxamide]",100 to 1000
16,"O=C(NCCC1CCN(Cc2ccccc2)CC1)N1CCC(c2csc3ccccc23)CC1 [8-10, 4-(1-benzothiophen-3-yl)-N-[2-(1-benzylpiperidin-4-yl)ethyl]piperidine-1-carboxamide]",10 to 100
17,"C[C@H]1CN(c2cc(F)c(F)c(F)c2)CCN1C(=O)NCCC1CCN(Cc2ccccc2)CC1 [4-24, (2S)-N-[2-(1-benzylpiperidin-4-yl)ethyl]-2-methyl-4-(3,4,5-trifluorophenyl)piperazine-1-carboxamide]",10 to 100
18,"Cc1cc(C)nc(N2CCC(C(=O)NCCC3CCN(Cc4ccccc4)CC3)CC2)n1 [10-74, N-[2-(1-benzylpiperidin-4-yl)ethyl]-1-(4,6-dimethylpyrimidin-2-yl)piperidine-4-carboxamide]",100 to 1000
19,"O=C(NCCC1CCN(Cc2ccc3[nH]ccc3c2)CC1)C1CCN(c2ccc(OC(F)(F)F)cc2)CC1 [11-22, N-{2-[1-(1H-indol-5-ylmethyl)piperidin-4-yl]ethyl}-1-[4-(trifluoromethoxy)phenyl]piperidine-4-carboxamide]",100 to 1000
